Test results: paper doi:10.1101/108654v1 (biorxiv, 2017)

How the values were obtained:
MCF7 = assay: cells; design: species or system human cancer cell lines; conditions: Homo sapiens, MCF7, 48 h, read-out: MCF7
in vitro = conditions: human, mrc5 cells
HepG2 = assay: cells; design: species or system human cancer cell lines; conditions: Homo sapiens, HepG2, 48 h, read-out: HepG2
MDA MB-231 = assay: cells; design: species or system human cancer cell lines; conditions: Homo sapiens, MDA-MB-231, 48 h, read-out: MDA MB-231
DU145 = assay: cells; design: species or system human cancer cell lines; conditions: Homo sapiens, DU-145, 48 h, read-out: DU145
SKOV3 = assay: cells; design: species or system human cancer cell lines; conditions: Homo sapiens, SK-OV-3, 48 h, read-out: SKOV3
porcine brain tubulin = porcine brain tubulin (Sus scrofa, UniProt P02550+P02554); assay: fluorescence-based tubulin polymerization assay; assay type: biochemical; conditions: read-out: % inhibition at 3 μM
Sequence of porcine brain tubulin (P02550 whole entry): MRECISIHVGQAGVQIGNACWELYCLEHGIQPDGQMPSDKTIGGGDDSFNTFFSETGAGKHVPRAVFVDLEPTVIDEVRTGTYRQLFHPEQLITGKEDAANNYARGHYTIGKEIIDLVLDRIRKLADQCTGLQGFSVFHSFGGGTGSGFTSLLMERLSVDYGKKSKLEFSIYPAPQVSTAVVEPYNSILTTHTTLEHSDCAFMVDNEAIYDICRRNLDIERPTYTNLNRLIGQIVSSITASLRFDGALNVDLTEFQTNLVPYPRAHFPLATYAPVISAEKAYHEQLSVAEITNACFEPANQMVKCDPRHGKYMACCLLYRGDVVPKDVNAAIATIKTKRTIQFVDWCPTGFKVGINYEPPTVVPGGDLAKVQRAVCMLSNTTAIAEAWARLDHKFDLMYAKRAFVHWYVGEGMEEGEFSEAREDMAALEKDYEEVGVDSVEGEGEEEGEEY
Sequence of porcine brain tubulin (P02554 whole entry): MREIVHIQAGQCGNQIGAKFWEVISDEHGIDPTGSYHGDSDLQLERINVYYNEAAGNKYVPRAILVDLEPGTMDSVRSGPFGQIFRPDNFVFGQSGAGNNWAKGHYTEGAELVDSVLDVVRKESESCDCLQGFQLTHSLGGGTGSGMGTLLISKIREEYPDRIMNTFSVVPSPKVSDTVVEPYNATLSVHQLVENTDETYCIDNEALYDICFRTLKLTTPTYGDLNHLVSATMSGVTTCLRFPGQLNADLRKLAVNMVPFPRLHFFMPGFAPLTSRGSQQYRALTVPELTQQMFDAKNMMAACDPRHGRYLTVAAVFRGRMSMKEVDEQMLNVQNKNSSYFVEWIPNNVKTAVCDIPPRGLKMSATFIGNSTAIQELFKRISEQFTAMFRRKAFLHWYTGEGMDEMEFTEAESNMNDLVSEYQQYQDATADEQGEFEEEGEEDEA

Compound: Clc1ccc2nc(Cl)nc(-c3ccccc3Cl)c2c1 [ATS-1]
- GI50 (MCF7): > 10 µM
- CC50 at 48 h (in vitro): 136 ± 1.63 µM
- GI50 (HepG2): > 10 µM
- GI50 (MDA MB-231): > 10 µM
- GI50 (DU145): > 10 µM
- GI50 (SKOV3): 0.15 ± 0.05 µM

Compound: Clc1ccc2nc(NN=Cc3c(Cl)cccc3Cl)nc(-c3ccccc3)c2c1 [ATS-3]
- GI50 (MCF7): > 10 µM
- CC50 at 48 h (in vitro): 159 ± 1.06 µM
- GI50 (HepG2): > 10 µM
- GI50 (MDA MB-231): 8.84 ± 0.12 µM
- GI50 (DU145): 2.27 ± 0.37 µM
- GI50 (SKOV3): 0.47 ± 0.06 µM

Compound: O=[N+]([O-])c1ccc(C=NNc2nc(-c3ccccc3)c3cc(Cl)ccc3n2)o1 [ATS-4]
- GI50 (MCF7): > 10 µM
- CC50 at 48 h (in vitro): 162 ± 1.82 µM
- GI50 (HepG2): 1.35 ± 0.45 µM
- GI50 (MDA MB-231): > 10 µM
- GI50 (DU145): 0.81 ± 0.07 µM
- GI50 (SKOV3): 2.75 ± 0.35 µM

Compound: Clc1ccc2nc(Nc3c(Cl)cccc3Cl)nc(-c3ccccc3)c2c1 [ATS-7]
- GI50 (MCF7): 0.6 ± 0.07 µM
- CC50 at 48 h (in vitro): 141 ± 1.41 µM
- GI50 (HepG2): > 10 µM
- GI50 (MDA MB-231): > 10 µM
- GI50 (DU145): > 10 µM
- GI50 (SKOV3): 10.3 ± 0.62 µM
- inhibition at 3 µM (porcine brain tubulin): 59%

Compound: COc1cccc2c1C(=O)c1c(O)c3c(c(O)c1C2=O)C[C@@](O)(C(=O)CO)C[C@@H]3O[C@H]1C[C@H](N)[C@H](O)[C@H](C)O1 [Doxorubicin]
- GI50 (MCF7): < 0.1 µM
- GI50 (HepG2): < 0.1 µM
- GI50 (MDA MB-231): < 0.1 µM
- GI50 (DU145): < 0.1 µM
- GI50 (SKOV3): 1.17 ± 0.52 µM

Compound: COC(=O)Nc1nc2ccc(C(=O)c3cccs3)cc2[nH]1 [nocodazole]
- GI50 (MCF7): < 0.1 µM
- CC50 at 48 h (in vitro): 129 ± 1.48 µM
- GI50 (HepG2): 7.06 ± 0.54 µM
- GI50 (MDA MB-231): 2.8 ± 0.51 µM
- GI50 (DU145): 0.17 ± 0.07 µM
- GI50 (SKOV3): < 0.1 µM
